Results from ChEMBL document CHEMBL5303764, “Data for DCP probe BI-3812” (2023).

Tests used:
[1] = target: Vasopressin V1a receptor (Homo sapiens) (UniProt P37288); assay: V1A/HUM Eurofins SafetyScreen44 (BI); details: Compound concentration 10.0 uM
[2] = target: Fibroblast growth factor receptor 1 (Homo sapiens) (UniProt P11362); assay: FGFR1 Invitrogen Lab (UK) kinase screen (BI); details: Compound concentration 1.0 uM
[3] = target: Proto-oncogene tyrosine-protein kinase receptor Ret (Homo sapiens) (UniProt P07949); assay: RET Invitrogen Lab (UK) kinase screen (BI); details: Compound concentration 1.0 uM
[4] = target: Sodium-dependent dopamine transporter (Homo sapiens) (UniProt Q01959); assay: DATRANS/HUM Eurofins SafetyScreen44 (BI); details: Compound concentration 10.0 uM
Sodium-dependent dopamine transporter (Homo sapiens), sequence (Q01959 whole entry): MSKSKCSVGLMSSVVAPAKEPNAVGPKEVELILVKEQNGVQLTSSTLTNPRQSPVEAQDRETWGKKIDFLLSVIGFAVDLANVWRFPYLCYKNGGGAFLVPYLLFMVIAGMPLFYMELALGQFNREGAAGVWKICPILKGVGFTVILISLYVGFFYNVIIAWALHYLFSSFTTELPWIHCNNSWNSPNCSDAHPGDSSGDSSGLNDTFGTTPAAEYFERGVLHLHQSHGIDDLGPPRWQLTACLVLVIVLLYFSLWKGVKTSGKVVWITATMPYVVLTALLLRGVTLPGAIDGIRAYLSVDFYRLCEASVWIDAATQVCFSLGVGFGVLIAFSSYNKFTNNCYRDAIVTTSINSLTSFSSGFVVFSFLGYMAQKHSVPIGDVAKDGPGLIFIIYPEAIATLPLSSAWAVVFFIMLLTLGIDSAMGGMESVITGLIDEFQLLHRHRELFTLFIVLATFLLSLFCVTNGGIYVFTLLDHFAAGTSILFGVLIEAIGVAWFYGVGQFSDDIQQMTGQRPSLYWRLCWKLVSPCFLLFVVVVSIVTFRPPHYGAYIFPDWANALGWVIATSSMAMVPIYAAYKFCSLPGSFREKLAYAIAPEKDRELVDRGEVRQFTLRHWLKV

[5] = target: 5-hydroxytryptamine receptor 7 (Homo sapiens) (UniProt P34969); details: Compound concentration 10.0 uM
5-hydroxytryptamine receptor 7 (Homo sapiens), sequence (P34969 whole entry): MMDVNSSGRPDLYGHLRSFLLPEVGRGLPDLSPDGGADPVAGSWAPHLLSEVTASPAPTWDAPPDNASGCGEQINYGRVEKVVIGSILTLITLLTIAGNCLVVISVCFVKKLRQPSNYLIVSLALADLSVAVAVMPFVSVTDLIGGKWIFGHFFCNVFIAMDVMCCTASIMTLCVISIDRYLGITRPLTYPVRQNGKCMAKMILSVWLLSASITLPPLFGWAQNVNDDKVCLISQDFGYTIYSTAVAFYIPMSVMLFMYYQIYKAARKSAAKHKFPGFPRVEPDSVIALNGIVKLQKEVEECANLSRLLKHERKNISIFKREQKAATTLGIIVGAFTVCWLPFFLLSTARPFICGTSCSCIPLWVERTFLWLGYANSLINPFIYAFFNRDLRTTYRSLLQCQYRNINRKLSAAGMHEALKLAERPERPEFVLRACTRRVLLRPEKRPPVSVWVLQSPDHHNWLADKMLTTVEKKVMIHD

[6] = target: Alpha-1D adrenergic receptor (Homo sapiens) (UniProt P25100); details: Compound concentration 10.0 uM
[7] = target: Beta-2 adrenergic receptor (Homo sapiens) (UniProt P07550); details: Compound concentration 10.0 uM
Beta-2 adrenergic receptor (Homo sapiens), sequence (P07550 whole entry, looked up): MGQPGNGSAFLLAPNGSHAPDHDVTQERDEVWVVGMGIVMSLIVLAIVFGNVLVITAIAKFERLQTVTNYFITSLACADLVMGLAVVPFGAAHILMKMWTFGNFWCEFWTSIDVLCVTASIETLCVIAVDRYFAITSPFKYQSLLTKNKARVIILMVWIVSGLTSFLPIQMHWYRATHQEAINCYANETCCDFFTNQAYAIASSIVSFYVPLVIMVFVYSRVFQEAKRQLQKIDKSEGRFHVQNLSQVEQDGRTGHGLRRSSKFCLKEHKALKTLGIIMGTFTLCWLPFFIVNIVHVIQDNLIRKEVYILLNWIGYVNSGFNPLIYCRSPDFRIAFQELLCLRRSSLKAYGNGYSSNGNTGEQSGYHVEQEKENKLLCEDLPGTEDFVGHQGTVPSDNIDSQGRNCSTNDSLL

[8] = target: Serine/threonine-protein kinase Chk2 (Homo sapiens) (UniProt O96017); assay: CHEK2 Invitrogen Lab (UK) kinase screen (BI); details: Compound concentration 1.0 uM
[9] = target: Sodium-dependent noradrenaline transporter (Homo sapiens) (UniProt P23975); assay: NEUP/H Eurofins SafetyScreen44 (BI); details: Compound concentration 10.0 uM
[10] = target: Proto-oncogene tyrosine-protein kinase Src (Homo sapiens) (UniProt P12931); assay: SRC Invitrogen Lab (UK) kinase screen (BI); details: Compound concentration 1.0 uM
[11] = target: 5-hydroxytryptamine receptor 5A (Homo sapiens) (UniProt P47898); details: Compound concentration 10.0 uM
5-hydroxytryptamine receptor 5A (Homo sapiens), sequence (P47898 whole entry): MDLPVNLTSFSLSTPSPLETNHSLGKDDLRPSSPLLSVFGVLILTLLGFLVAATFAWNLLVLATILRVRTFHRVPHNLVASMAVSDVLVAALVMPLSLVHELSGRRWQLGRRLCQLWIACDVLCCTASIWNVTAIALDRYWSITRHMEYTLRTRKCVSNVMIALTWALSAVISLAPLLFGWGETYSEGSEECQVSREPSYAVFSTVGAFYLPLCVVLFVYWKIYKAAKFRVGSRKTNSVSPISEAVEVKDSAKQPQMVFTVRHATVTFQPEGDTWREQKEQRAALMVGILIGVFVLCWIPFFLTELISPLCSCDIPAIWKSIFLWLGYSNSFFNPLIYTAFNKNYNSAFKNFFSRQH

[12] = target: 5-hydroxytryptamine receptor 1A (Homo sapiens) (UniProt P08908); assay: 5HT1A/H Eurofins SafetyScreen44 (BI); details: Compound concentration 10.0 uM
[13] = target: Alpha-1B adrenergic receptor (Homo sapiens) (UniProt P35368); details: Compound concentration 10.0 uM
[14] = target: Cannabinoid receptor 1 (Homo sapiens) (UniProt P21554); assay: CB1(HU)_AGON Eurofins SafetyScreen44 (BI); details: filed as agonist, Compound concentration 10.0 uM
[15] = target: Zinc finger and BTB domain-containing protein 32 (Homo sapiens, UniProt Q9Y2Y4); assay: SPR (ZBTB32), Ontario institute for cancer research
[16] = target: Myosin light chain kinase 2, skeletal/cardiac muscle (Homo sapiens) (UniProt Q9H1R3); assay: MYLK2 Invitrogen Lab (UK) kinase screen (BI); details: Compound concentration 1.0 uM
[17] = target: Glucocorticoid receptor (Homo sapiens) (UniProt P04150); assay: GCORTICOID/H Eurofins SafetyScreen44 (BI); details: Compound concentration 10.0 uM
[18] = target: Glycogen synthase kinase-3 beta (Homo sapiens) (UniProt P49841); assay: GSK3B Invitrogen Lab (UK) kinase screen (BI); details: Compound concentration 1.0 uM
[19] = target: Histamine H2 receptor (Homo sapiens) (UniProt P25021); details: Compound concentration 10.0 uM
[20] = target: Mitogen-activated protein kinase 1 (Homo sapiens) (UniProt P28482); assay: MAPK1 Invitrogen Lab (UK) kinase screen (BI); details: Compound concentration 1.0 uM
[21] = target: Sodium-dependent serotonin transporter (Homo sapiens) (UniProt P31645); details: Compound concentration 10.0 uM
[22] = target: Serine/threonine-protein kinase TBK1 (Homo sapiens) (UniProt Q9UHD2); assay: TBK1 Invitrogen Lab (UK) kinase screen (BI); details: Compound concentration 1.0 uM
[23] = target: Sodium-dependent dopamine transporter (Homo sapiens) (UniProt Q01959); details: Compound concentration 10.0 uM
[24] = target: Dual specificity mitogen-activated protein kinase kinase 2 (Homo sapiens) (UniProt P36507); assay: MAP2K2 Invitrogen Lab (UK) kinase screen (BI); details: Compound concentration 1.0 uM
[25] = target: Dual specificity mitogen-activated protein kinase kinase 1 (Homo sapiens) (UniProt Q02750); assay: MAP2K1 Invitrogen Lab (UK) kinase screen (BI); details: Compound concentration 1.0 uM
[26] = target: Histamine H1 receptor (Homo sapiens) (UniProt P35367); assay: H1/PYRIL/HS Eurofins SafetyScreen44 (BI); details: Compound concentration 10.0 uM
Histamine H1 receptor (Homo sapiens), sequence (P35367 whole entry): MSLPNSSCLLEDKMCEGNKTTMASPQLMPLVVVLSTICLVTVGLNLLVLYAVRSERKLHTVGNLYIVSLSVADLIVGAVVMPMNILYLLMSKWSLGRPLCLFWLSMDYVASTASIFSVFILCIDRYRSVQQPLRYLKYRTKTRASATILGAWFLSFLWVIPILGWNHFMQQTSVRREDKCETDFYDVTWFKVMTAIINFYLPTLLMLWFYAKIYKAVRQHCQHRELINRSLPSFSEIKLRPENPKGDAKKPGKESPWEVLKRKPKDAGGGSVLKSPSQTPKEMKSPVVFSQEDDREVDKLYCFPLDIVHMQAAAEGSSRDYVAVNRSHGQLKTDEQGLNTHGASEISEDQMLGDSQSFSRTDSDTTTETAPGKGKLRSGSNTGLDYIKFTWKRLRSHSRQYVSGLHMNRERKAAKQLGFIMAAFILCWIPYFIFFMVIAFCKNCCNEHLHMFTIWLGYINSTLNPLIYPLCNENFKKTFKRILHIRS

[27] = target: Muscarinic acetylcholine receptor M4 (Homo sapiens) (UniProt P08173); details: Compound concentration 10.0 uM
Muscarinic acetylcholine receptor M4 (Homo sapiens), sequence (P08173 whole entry): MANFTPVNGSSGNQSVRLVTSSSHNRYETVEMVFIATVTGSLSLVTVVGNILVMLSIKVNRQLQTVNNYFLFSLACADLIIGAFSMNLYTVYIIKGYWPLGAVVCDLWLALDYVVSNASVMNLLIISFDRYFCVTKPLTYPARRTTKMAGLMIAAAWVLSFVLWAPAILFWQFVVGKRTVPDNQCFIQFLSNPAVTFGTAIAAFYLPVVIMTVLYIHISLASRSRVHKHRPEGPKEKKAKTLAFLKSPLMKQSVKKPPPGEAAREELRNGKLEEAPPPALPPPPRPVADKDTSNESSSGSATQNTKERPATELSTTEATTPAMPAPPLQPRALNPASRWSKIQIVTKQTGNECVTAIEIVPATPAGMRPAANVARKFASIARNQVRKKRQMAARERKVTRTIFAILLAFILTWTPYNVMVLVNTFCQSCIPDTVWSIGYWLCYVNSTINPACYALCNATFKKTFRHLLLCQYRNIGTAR

[28] = target: Serine/threonine-protein kinase Chk1 (Homo sapiens) (UniProt O14757); assay: CHEK1 Invitrogen Lab (UK) kinase screen (BI); details: Compound concentration 1.0 uM
[29] = target: Inhibitor of nuclear factor kappa-B kinase subunit beta (Homo sapiens) (UniProt O14920); assay: IKBKB Invitrogen Lab (UK) kinase screen (BI); details: Compound concentration 1.0 uM
[30] = target: Focal adhesion kinase 1 (Homo sapiens) (UniProt Q05397); assay: PTK2 Invitrogen Lab (UK) kinase screen (BI); details: Compound concentration 1.0 uM
[31] = target: 5-hydroxytryptamine receptor 3A (Homo sapiens) (UniProt P46098); assay: 5HT3/H Eurofins SafetyScreen44 (BI); details: Compound concentration 10.0 uM
[32] = target: Alpha-1A adrenergic receptor (Homo sapiens) (UniProt P35348); assay: ALPHA1AH_ANTAG Eurofins SafetyScreen44 (BI); details: filed as antagonist, Compound concentration 10.0 uM
[33] = target: MAP kinase-activated protein kinase 3 (Homo sapiens) (UniProt Q16644); assay: MAPKAPK3 Invitrogen Lab (UK) kinase screen (BI); details: Compound concentration 1.0 uM
[34] = target: Tyrosine-protein kinase ITK/TSK (Homo sapiens) (UniProt Q08881); assay: ITK Invitrogen Lab (UK) kinase screen (BI); details: Compound concentration 1.0 uM
[35] = target: Muscarinic acetylcholine receptor M3 (Homo sapiens, UniProt P20309); details: Compound concentration 10.0 uM
Muscarinic acetylcholine receptor M3, sequence (P20309 whole entry, looked up): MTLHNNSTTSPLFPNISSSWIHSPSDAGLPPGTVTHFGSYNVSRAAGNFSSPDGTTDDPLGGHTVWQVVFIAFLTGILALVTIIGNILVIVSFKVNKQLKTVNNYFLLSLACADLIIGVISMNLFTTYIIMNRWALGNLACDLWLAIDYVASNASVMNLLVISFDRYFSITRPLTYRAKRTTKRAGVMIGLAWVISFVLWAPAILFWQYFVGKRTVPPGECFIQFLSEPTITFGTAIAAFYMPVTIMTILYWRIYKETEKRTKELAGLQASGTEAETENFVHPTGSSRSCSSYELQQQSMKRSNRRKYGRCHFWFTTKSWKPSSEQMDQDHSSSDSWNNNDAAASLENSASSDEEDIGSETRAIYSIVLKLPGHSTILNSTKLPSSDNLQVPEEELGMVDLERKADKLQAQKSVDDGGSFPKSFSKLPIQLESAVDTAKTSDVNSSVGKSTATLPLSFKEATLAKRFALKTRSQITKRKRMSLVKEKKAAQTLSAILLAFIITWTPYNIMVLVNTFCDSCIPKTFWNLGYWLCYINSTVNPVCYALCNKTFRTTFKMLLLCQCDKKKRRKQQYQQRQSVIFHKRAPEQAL

[36] = target: Kappa-type opioid receptor (Homo sapiens) (UniProt P41145); assay: KAPPA(KOP)_HU Eurofins SafetyScreen44 (BI); details: Compound concentration 10.0 uM
[37] = target: D(2) dopamine receptor (Homo sapiens) (UniProt P14416); details: Compound concentration 10.0 uM
D(2) dopamine receptor (Homo sapiens), sequence (P14416 whole entry): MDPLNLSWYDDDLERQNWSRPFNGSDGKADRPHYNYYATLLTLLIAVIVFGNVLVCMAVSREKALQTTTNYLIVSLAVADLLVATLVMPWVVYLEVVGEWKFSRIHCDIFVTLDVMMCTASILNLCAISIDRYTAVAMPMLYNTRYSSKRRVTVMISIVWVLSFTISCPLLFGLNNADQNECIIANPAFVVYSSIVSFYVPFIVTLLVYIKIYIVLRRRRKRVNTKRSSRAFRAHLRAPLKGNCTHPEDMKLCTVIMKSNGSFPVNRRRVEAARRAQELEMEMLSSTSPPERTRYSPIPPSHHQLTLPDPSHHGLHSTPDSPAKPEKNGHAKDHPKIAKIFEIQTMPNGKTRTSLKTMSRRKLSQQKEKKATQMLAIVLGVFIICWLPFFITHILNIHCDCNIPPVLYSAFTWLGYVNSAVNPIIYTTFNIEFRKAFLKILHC

[38] = target: Beta-2 adrenergic receptor (Homo sapiens) (UniProt P07550); assay: BETA2/HUM Eurofins SafetyScreen44 (BI); details: filed as antagonist, Compound concentration 10.0 uM
[39] = target: Delta-type opioid receptor (Homo sapiens) (UniProt P41143); details: Compound concentration 10.0 uM
[40] = target: 5-hydroxytryptamine receptor 2C (Homo sapiens) (UniProt P28335); details: Compound concentration 10.0 uM
[41] = target: Mitogen-activated protein kinase 8 (Homo sapiens) (UniProt P45983); assay: MAPK8 Invitrogen Lab (UK) kinase screen (BI); details: Compound concentration 1.0 uM
[42] = target: D(1B) dopamine receptor (Homo sapiens) (UniProt P21918); details: Compound concentration 10.0 uM
D(1B) dopamine receptor (Homo sapiens), sequence (P21918 whole entry): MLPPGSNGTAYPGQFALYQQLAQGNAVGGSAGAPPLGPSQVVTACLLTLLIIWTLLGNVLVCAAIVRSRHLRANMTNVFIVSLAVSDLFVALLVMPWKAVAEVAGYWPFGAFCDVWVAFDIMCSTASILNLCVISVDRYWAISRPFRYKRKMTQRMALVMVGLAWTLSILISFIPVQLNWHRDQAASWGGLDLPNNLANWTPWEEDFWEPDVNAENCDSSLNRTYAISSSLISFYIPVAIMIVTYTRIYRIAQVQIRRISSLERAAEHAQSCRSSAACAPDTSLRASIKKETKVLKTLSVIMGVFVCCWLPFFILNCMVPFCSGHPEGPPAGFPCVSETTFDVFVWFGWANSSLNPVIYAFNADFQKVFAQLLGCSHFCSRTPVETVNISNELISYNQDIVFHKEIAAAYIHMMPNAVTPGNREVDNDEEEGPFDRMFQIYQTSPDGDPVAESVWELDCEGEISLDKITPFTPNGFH

[43] = target: Histamine H1 receptor (Homo sapiens) (UniProt P35367); details: Compound concentration 10.0 uM
[44] = target: Leucine-rich repeat serine/threonine-protein kinase 2 (Homo sapiens) (UniProt Q5S007); assay: LRRK2 Invitrogen Lab (UK) kinase screen (BI); details: Compound concentration 1.0 uM
[45] = target: Beta-1 adrenergic receptor (Homo sapiens) (UniProt P08588); details: Compound concentration 10.0 uM
Beta-1 adrenergic receptor (Homo sapiens), sequence (P08588 whole entry, looked up): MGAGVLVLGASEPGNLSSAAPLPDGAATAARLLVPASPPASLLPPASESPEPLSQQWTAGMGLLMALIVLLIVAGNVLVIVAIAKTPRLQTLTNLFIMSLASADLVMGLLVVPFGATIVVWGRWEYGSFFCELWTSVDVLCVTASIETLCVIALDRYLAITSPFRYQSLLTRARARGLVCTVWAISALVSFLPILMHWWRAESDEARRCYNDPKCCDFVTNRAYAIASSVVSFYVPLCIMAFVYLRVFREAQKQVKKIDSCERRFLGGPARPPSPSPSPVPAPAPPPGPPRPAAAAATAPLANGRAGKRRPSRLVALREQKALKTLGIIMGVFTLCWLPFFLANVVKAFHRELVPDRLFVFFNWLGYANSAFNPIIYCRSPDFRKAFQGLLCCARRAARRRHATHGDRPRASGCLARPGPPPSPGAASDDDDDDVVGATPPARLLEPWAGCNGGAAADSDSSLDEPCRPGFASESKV

residual activity [2]: 86%
residual activity [3]: 95%
inhibition [5]: 18.2%
inhibition [6]: 2.72%
inhibition [7]: 1.38%
residual activity [8]: 93%
residual activity [10]: 88%
inhibition [11]: 12.9%
inhibition [13]: 9.69%
Kd [15]: No binding
residual activity [16]: 101%
residual activity [18]: 97%
inhibition [19]: 9.74%
residual activity [20]: 98%
inhibition [21]: 14.1%
residual activity [22]: 97%
inhibition [23]: 12.2%
residual activity [24]: 95%
residual activity [25]: 100%
inhibition [27]: 74.1%
residual activity [28]: 91%
residual activity [29]: 96%
residual activity [30]: 90%
residual activity [33]: 99%
residual activity [34]: 83%
inhibition [35]: 65.8%
inhibition [37]: 1.86%
inhibition [39]: 17.6%
inhibition [40]: -2.05%
residual activity [41]: 82%
inhibition [42]: 3.05%
inhibition [43]: 2.93%
residual activity [44]: 111%
inhibition [45]: -5.19%
SMILES: CNC(=O)COc1cc2cc(Nc3nc(N4CCC(C(=O)N(C)C)CC4)ncc3Cl)cc(OC)c2n(C)c1=O
residual activity [1]: 101%
residual activity [4]: 101%
residual activity [9]: 99%
residual activity [12]: 89%
residual activity [14]: 123%
residual activity [17]: 102%
residual activity [26]: 97%
residual activity [31]: 95%
residual activity [32]: 99%
residual activity [36]: 83%
residual activity [38]: 92%
